Our source for the IC50, EC50 and Papp values is patent publication US10202390B2, “Heteroaryl substituted aminopyridine compounds” (BRISTOL-MYERS SQUIBB COMPANY, priority 2015, dated 2019).

In one data set the target is IRAK4 (Homo sapiens (Human), UniProt Q9NWZ3). The experiment in a line: IRAK4 Inhibition Assay. The class given is biochemical. To be noted: ATP 500 μM; IRAK4 0.6 nM; 60 min room temperature. The method, then:
The assays were performed in U-bottom 384-well plates. The final assay volume was 30 μL prepared from 15 μL additions of enzyme and substrates (fluoresceinated peptide and ATP) and test compounds in assay buffer (20 mM HEPES pH 7.2, 10 mM MgCl2, 0.015% Brij 35 and 4 mM DTT). The reaction was initiated by the combination of IRAK4 with substrates and test compounds. The reaction mixture was incubated at room temperature for 60 min. and terminated by adding 45 μL of 35 mM EDTA to each sample. The reaction mixture was analyzed on the Caliper LABCHIP® 3000 (Caliper, Hopkinton, Mass.) by electrophoretic separation of the fluorescent substrate and phosphorylated product. Inhibition data were calculated by comparison to no enzyme control reactions for 100% inhibition and vehicle-only reactions for 0% inhibition. The final concentrations of reagents in the assays are ATP, 500 μM; FL-IPTSPITTTYFFFKKK peptide 1.5 μM; IRAK4, 0.6 nM; and DMSO, 1.6%.

In the next data set the test system is Human whole blood. The experiment in a line: IRAK4 Whole Blood Assay (TLR2 agonist lipoteichoic acid induced IL-6). In kind it is cell-based. To be noted: 10 μg/mL lipoteichoic acid (TLR2 agonist), 5 hours, IL-6 levels. The method, then: Human whole blood containing the anti-coagulant ACD-A was plated in 384-well plate (25 μL/well) and incubated with compounds for 60 minutes at 37° C. in a 5% CO2 incubator. The blood was stimulated with a TLR2 agonist, 10 μg/mL final concentration of lipoteichoic acid (Invivogen, San Diego, Calif.) in 25 μL RPMI (Gibco) for 5 hours in a 5% CO2 incubator. At the end of the incubation, plates were centrifuged at 2300 rpm for 5 minutes. Supernatants were harvested and analyzed for IL-6 levels by Flow Cytometry beads assay (BD Biosciences, San Jose, Calif.).

Data set [1] can be described thus: Caco-2 Permeability Assay. In kind it is in vitro ADME. To be noted: human, test compound 3 μM, 2 hours at 37° C., direction not given. The method, then:
Caco-2 Permeability Assay Protocol
Thirteen to 27 days prior to assay, Caco-2 cells were seeded onto collagen-coated polycarbonate filter membranes in 24-well transwell plates at a density of 1.45×10^5 cells/cm^2, approximately 4.8×10^4 cells per well. The cells were grown in a culture medium consisting of DMEM supplemented with 10% fetal bovine serum, 10 mM HEPES, 1% nonessential amino acids, 2 mM L-glutamine, 100 U/mL penicillin-G, and 100 μg/mL streptomycin. The culture medium was replaced every 3 days and the cells were maintained at 37° C. in a 95% relative humidity and 5% CO2 atmosphere. The cells were evaluated for tight junction formation just prior to assay. The test compound was solubilized to 10 mM in 100% DMSO and diluted to 3 μM in assay buffer. Permeability studies were initiated by adding 200 μL assay buffer plus/minus compound to the apical transwell compartment and 600 μL assay buffer plus/minus compound to the basolateral compartment of the 24-well transwell low-binding cluster plate. For apical-to-basolateral (A to B) permeability (absorptive direction), buffer containing compound was placed in the apical compartment (donorwells), while buffer alone was placed in the corresponding basolateral compartments (receiverwells). For basolateral-to-apical (B to A) permeability (secretive direction), buffer containing compound was placed in the basolateral compartment (donor wells), while buffer alone was placed in the corresponding apical compartments (receiver wells). Transwells were then incubated for 2 hours at 37° C. in a 95% relative humidity and 5% CO2 atmosphere with gentle agitation. Following incubation, 100 μL was removed from each apical and basolateral compartment and transferred to 96-well low binding plates that had been previously loaded with 100 μL/well of acetonitrile containing 250 nM propranolol, 250 nM diclofenac, and 500 nM tolbutamide as internal standards. The samples were subsequently analyzed by LC-MS/MS to determine concentrations of compound.
For orientation: Passage across Caco-2 layers is used to estimate intestinal permeability.

IRAK4, sequence (Q9NWZ3 whole entry): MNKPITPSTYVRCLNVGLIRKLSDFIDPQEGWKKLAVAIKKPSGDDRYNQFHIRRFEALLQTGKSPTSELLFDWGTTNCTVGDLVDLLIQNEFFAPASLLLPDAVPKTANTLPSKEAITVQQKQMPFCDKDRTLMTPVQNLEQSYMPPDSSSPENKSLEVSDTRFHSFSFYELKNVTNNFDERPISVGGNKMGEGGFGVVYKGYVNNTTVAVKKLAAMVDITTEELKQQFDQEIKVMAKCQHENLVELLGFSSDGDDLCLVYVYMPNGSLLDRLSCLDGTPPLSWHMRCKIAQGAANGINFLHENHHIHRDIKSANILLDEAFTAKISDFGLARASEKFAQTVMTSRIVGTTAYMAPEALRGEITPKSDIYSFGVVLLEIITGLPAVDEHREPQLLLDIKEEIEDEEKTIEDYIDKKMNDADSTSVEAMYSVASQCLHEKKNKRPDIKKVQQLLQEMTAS

Broadly, the IC50 is the point on the concentration scale where inhibition reaches its midpoint. In the case of `CC(C)Nc1cc(-c2cnc3cc(C#N)cnn23)ncc1-c1cnn(CC(F)(F)F)c1` [Example 8, 3-(4-(isopropylamino)-5-(1-(2,2,2-trifluoroethyl)-1H-pyrazol-4-yl)pyridin-2-yl)imidazo[1,2-b]pyridazine-7-carbonitrile], the IC50 on IRAK4 is 43 nM.
One may read the EC50 as the concentration at which the effect is half-maximal. Consider `CC(C)(O)CCc1cn(-c2cnc(-c3cnn4cc(Cl)cnc34)cc2NC2CCOCC2)nn1` [Example 23, 4-(1-(6-(6-chloropyrazolo[1,5-a]pyrimidin-3-yl)-4-((tetrahydro-2H-pyran-4-yl)amino)pyridin-3-yl)-1H-1,2,3-triazol-4-yl)-2-methylbutan-2-ol], for which the IC50 on IRAK4 was 9 nM. This compound had an EC50 in the data set on Human whole blood of 990 nM.
For `CC(C)(O)CCc1cc(-c2cnc(-c3cnn4cc(C#N)cnc34)cc2NC2CCOCC2)n[nH]1` [Example 29, 3-(5-(5-(3-hydroxy-3-methylbutyl)-1H-pyrazol-3-yl)-4-((tetrahydro-2H-pyran-4-yl)amino)pyridin-2-yl)pyrazolo[1,5-a]pyrimidine-6-carbonitrile], in that order: 2 nM and 510 nM.
Taken in the same sequence, the figures for `CC(C)(O)CCc1cn(-c2cnc(-c3cnn4cc(Cl)cnc34)cc2NC2COC2)nn1` [Example 14, 4-(1-(6-(6-chloropyrazolo[1,5-a]pyrimidin-3-yl)-4-(oxetan-3-ylamino)pyridin-3-yl)-1H-1,2,3-triazol-4-yl)-2-methylbutan-2-ol] were 9 nM and 820 nM.
Consider `CCCn1cc(-c2cnc(-c3cnc4cc(C#N)cnn34)cc2Nc2cnn(CC(F)F)c2)cn1` [Example 10, 3-(4-((1-(2,2-difluoroethyl)-1H-pyrazol-4-yl)amino)-5-(1-propyl-1H-pyrazol-4-yl)pyridin-2-yl)imidazo[1,2-b]pyridazine-7-carbonitrile], for which the IC50 at IRAK4 turned out to be 20 nM.
Still for that read-out and setting: in the case of `CC(=O)N1CC(n2cc(-c3cnc(-c4cnc5cc(C#N)cnn45)cc3NC(C)C)nn2)C1` [Example 17, 3-(5-(1-(1-acetylazetidin-3-yl)-1H-1,2,3-triazol-4-yl)-4-(isopropylamino)pyridin-2-yl)imidazo[1,2-b]pyridazine-7-carbonitrile] it was 2 nM.
Same read-out and setting: the result for `CC(C)Nc1cc(-c2cnn3cc(C#N)cnc23)ncc1-n1cc(C(C)(C)O)cn1` [Example 1, 3-(5-(4-(2-hydroxypropan-2-yl)-1H-pyrazol-1-yl)-4-(isopropylamino)pyridin-2-yl) pyrazolo[1,5-a]pyrimidine-6-carbonitrile] reads 578 nM; that for `CC(C)Nc1cc(-c2cnc3cc(Cl)cnn23)ncc1-c1cnn(CC(F)(F)F)c1` [Example 7, 2-(7-chloroimidazo[1,2-b]pyridazin-3-yl)-N-isopropyl-5-(1-(2,2,2-trifluoroethyl)-1H-pyrazol-4-yl)pyridin-4-amine], 53 nM.
`CC(C)(O)CCc1cn(-c2cnc(-c3cnn4cc(C#N)cnc34)cc2NC2CC(F)(F)C2)nn1` [Example 24, 3-(4-((3,3-difluorocyclobutyl)amino)-5-(4-(3-hydroxy-3-methylbutyl)-1H-1,2,3-triazol-1-yl)pyridin-2-yl)pyrazolo[1,5-a]pyrimidine-6-carbonitrile]: the IC50 at IRAK4 was 14 nM. This compound also had an EC50 with Human whole blood of 780 nM.
On to `CC(C)Nc1cc(-c2cnc3cc(C#N)cnn23)ncc1-c1cnn(CC(C)(C)O)c1` [Example 5, 3-(5-(1-(2-hydroxy-2-methylpropyl)-1H-pyrazol-4-yl)-4-(isopropylamino)pyridin-2-yl)imidazo[1,2-b]pyridazine-7-carbonitrile], for which the IC50 at IRAK4 was 174 nM.
The same measure, in the same setting: the result for `CC(C)Nc1cc(-c2cnc3cc(C#N)cnn23)ncc1-c1cn(C2CCOCC2)nn1` [Example 16, 3-(4-(isopropylamino)-5-(1-(tetrahydro-2H-pyran-4-yl)-1H-1,2,3-triazol-4-yl)pyridin-2-yl)imidazo[1,2-b]pyridazine-7-carbonitrile] reads 2 nM.
A word on the Papp: it is a coefficient for how fast a substance crosses the barrier. A lower Papp goes with poor permeation. As for `CCCc1cn(-c2cnc(-c3cnn4cc(C#N)cnc34)cc2NC(C)C)nn1` [Example 12, 3-(4-(isopropylamino)-5-(4-propyl-1H-1,2,3-triazol-1-yl)pyridin-2-yl)pyrazolo[1,5-a]pyrimidine-6-carbonitrile], the IC50 on IRAK4 was 9 nM. This compound also gave a Papp at 2 h, 3 μM in data set [1] of 34.7 ×10⁻⁶ cm/s.
As to `CC(C)Nc1cc(-c2cnc3cc(C#N)cnn23)ncc1-c1cc(C2CCOCC2)[nH]n1` [Example 28, 3-(4-(isopropylamino)-5-(5-(tetrahydro-2H-pyran-4-yl)-1H-pyrazol-3-yl)pyridin-2-yl)imidazo[1,2-b]pyridazine-7-carbonitrile], the IC50 at IRAK4 turned out to be 5 nM. This compound displayed an EC50 in the data set on Human whole blood of 590 nM.
In the case of `CCCn1cc(-c2cnc(-c3cnc4cc(C#N)cnn34)cc2NC(C)C)cn1` [Example 6, 3-(4-(isopropylamino)-5-(1-propyl-1H-pyrazol-4-yl)pyridin-2-yl)imidazo[1,2-b]pyridazine-7-carbonitrile], on IRAK4, the IC50 was 18 nM. Moreover, the EC50 in the data set on Human whole blood turned out to be 4410 nM.
Consider `CCCn1cc(-c2cnc(-c3cnc4cc(Cl)cnn34)cc2Nc2cnn(CC(F)F)c2)cn1` [Example 9, 2-(7-chloroimidazo[1,2-b]pyridazin-3-yl)-N-(1-(2,2-difluoroethyl)-1H-pyrazol-4-yl)-5-(1-propyl-1H-pyrazol-4-yl)pyridin-4-amine], for which the IC50 at IRAK4 amounted to 29 nM.
The compound `CC(C)(O)CCc1cn(-c2cnc(-c3cnn4cc(C#N)cnc34)cc2NC2COC2)nn1` [Example 26, 3-(5-(4-(3-hydroxy-3-methylbutyl)-1H-1,2,3-triazol-1-yl)-4-(oxetan-3-ylamino)pyridin-2-yl)pyrazolo[1,5-a]pyrimidine-6-carbonitrile] returned an EC50 in the data set with Human whole blood of 160 nM.
On to `CC(C)Nc1cc(-c2cnc3cc(Cl)cnn23)ncc1-c1cnn(CC(C)(C)O)c1` [Example 4, 1-(4-(6-(7-chloroimidazo[1,2-b]pyridazin-3-yl)-4-(isopropylamino)pyridin-3-yl)-1H-pyrazol-1-yl)-2-methylpropan-2-ol], for which the IC50 on IRAK4 is 396 nM.
On the same count and under the same terms, in the case of `CCCn1cc(-c2cnc(-c3cnc4cc(Cl)cnn34)cc2NC(C)C)nn1` [Example 20, 2-(7-chloroimidazo[1,2-b]pyridazin-3-yl)-N-isopropyl-5-(1-propyl-1H-1,2,3-triazol-4-yl)pyridin-4-amine] it was 12 nM.
For `COC(=O)N1CCC(n2cc(-c3cnc(-c4cnc5cc(Cl)cnn45)cc3NC3CC3)nn2)[C@](C)(O)C1` (stereo partly drawn) [Example 21, (3R)-methyl 4-(4-(6-(7-chloroimidazo[1,2-b]pyridazin-3-yl)-4-(cyclopropylamino)pyridin-3-yl)-1H-1,2,3-triazol-1-yl)-3-hydroxy-3-methylpiperidine-1-carboxylate], the IC50 on IRAK4 worked out at 14 nM. This compound returned an EC50 with Human whole blood of 2870 nM.
For `CCCn1cc(-c2cnc(-c3cnc4cc(Cl)cnn34)cc2NC2CC2)nn1` [Example 19, 2-(7-chloroimidazo[1,2-b]pyridazin-3-yl)-N-cyclopropyl-5-(1-propyl-1H-1,2,3-triazol-4-yl)pyridin-4-amine], in that order: 3 nM and 2320 nM.
Taken in the same sequence, the figures for `CC(C)Nc1cc(-c2cnc3cc(C#N)cnn23)ncc1-c1cnn(C2CCOCC2)c1` [Example 3, 3-(4-(isopropylamino)-5-(1-(tetrahydro-2H-pyran-4-yl)-1H-pyrazol-4-yl)pyridin-2-yl)imidazo[1,2-b]pyridazine-7-carbonitrile] were 14 nM and 1030 nM.
Taken in the same sequence, the figures for `CC(C)Nc1cc(-c2cnn3cc(Cl)cnc23)ncc1-n1cc(CCC(C)(C)O)nn1` [Example 13, 4-(1-(6-(6-chloropyrazolo[1,5-a]pyrimidin-3-yl)-4-(isopropylamino)pyridin-3-yl)-H-1,2,3-triazol-4-yl)-2-methylbutan-2-ol] were 3 nM and 950 nM.
